Reference: patent US11524966B1 (Valo Early Discovery, Inc., priority 2017, dated 2022)
pIC50: −log10 of the molar value.

Molecular target: T1, USP25 (USP25-His6, Boston Biochem E-546) (Homo sapiens, UniProt Q9UHP3)
T1 construct: His6; purchased Boston Biochem E-546
T1 sequence (Q9UHP3 1-1055): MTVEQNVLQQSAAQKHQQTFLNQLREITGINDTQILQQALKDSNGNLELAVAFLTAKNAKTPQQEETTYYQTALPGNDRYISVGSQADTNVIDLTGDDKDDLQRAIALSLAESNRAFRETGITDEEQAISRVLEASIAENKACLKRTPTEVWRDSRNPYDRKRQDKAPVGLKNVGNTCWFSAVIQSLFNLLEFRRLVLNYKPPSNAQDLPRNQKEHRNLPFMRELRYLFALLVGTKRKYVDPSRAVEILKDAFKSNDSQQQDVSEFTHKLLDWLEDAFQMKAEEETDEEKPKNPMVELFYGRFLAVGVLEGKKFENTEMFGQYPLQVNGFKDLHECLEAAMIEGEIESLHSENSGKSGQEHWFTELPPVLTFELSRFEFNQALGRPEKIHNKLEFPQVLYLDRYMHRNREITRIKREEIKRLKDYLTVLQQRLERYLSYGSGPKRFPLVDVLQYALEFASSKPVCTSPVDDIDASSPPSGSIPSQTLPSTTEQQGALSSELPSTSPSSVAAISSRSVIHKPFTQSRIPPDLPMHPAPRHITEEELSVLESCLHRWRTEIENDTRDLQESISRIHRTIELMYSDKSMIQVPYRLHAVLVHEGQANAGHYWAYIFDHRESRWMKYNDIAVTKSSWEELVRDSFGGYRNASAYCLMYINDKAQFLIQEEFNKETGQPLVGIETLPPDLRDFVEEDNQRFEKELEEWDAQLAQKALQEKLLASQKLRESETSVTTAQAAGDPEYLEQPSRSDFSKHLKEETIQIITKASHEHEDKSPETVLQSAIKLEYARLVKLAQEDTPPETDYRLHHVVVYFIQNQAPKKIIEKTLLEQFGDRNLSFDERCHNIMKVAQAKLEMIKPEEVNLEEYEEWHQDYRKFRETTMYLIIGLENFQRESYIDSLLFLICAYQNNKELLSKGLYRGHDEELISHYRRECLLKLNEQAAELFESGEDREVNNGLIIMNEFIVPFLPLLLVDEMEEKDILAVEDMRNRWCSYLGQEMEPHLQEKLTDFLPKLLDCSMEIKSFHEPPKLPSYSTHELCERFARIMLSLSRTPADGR
Assay: Ubiquitin-Rhodamine 110 Assay for USP25 Activity, Example A-2
Format: biochemical
Conditions: Ubiquitin-Rhodamine 110 assay, Example A-2; read-out: USP25 A-2 IC50 range
How it was run: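 Read-out: Rh110 fluorescence (ex 485, em 535 nm) after 45 min RT turnover of 25 nM Ub-Rh110 by 75 pM USP25-His6, quenched with 10 mM citric acid. Compounds at 25 μM–1.3 nM, preincubated 30 min with enzyme. IC50 from 4-parameter logistic fit.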

Cc1cnc2c(N)c(C(=O)N[C@H]3CCc4nc(N5C[C@@H](N)C6(COC6)C5)ccc4C3)sc2n1 [Example 366, 7-amino-N-[(6S)-2-[(8S)-8-amino-2-oxa-6-azaspiro[3.4]octan-6-yl]-5,6,7,8-tetrahydroquinolin-6-yl]-3-methylthieno[2,3-b]pyrazine-6-carboxamide]
pIC50: < 5.70

Cc1ccc2c(N)c(C(=O)N[C@H]3COc4cc(N5CCC[C@](C)(O)C5)ccc4C3)sc2n1 [Example 7-2]
pIC50: 5.70 to 6.70

Cc1ccc2c(N)c(C(=O)N[C@@H]3CCc4cc(N5CCNCC5)c(F)c(F)c4C3)sc2n1 [Example 418, 3-amino-N-[(2R)-7,8-difluoro-6-(piperazin-1-yl)-1,2,3,4-tetrahydronaphthalen-2-yl]-6-methylthieno[2,3-b]pyridine-2-carboxamide]
pIC50: 5.70 to 6.70

CC(=O)Nc1cccc(CNc2ccc(C(=O)N[C@H]3COc4cc(N5CCNCC5)ccc4C3)cn2)c1 [Example 473, (R)-6-((3-acetamidobenzyl)amino)-N-(7-(piperazin-1-yl)chroman-3-yl)nicotinamide]
pIC50: < 5.70

CCn1cc(Cl)c2cc(C(=O)N[C@H]3COc4c(F)c(N5CC6CCC(C5)N6)cc(F)c4C3)nnc21 [Example 355, 5-chloro-N-[(3R)-7-{3,8-diazabicyclo[3.2.1]octan-3-yl}-5,8-difluoro-3,4-dihydro-2H-1-benzopyran-3-yl]-7-ethyl-7H-pyrrolo[2,3-c]pyridazine-3-carboxamide]
pIC50: 5.70 to 6.70

CO[C@@H]1CN(c2cc3c(c(F)c2F)C[C@@H](NC(=O)c2sc4nc(C)ccc4c2N)CO3)C[C@H]1N [Example 415, 3-amino-N-[(3R)-7-[(3R,4R)-3-amino-4-methoxypyrrolidin-1-yl]-5,6-difluoro-3,4-dihydro-2H-1-benzopyran-3-yl]-6-methylthieno[2,3-b]pyridine-2-carboxamide]
pIC50: 5.70 to 6.70

CCn1cc(Cl)c2cc(C(=O)N[C@H]3COc4c(C#N)c(N5CC6CCC(C5)N6)cc(F)c4C3)nnc21 [Example 356, 5-chloro-N-[(3R)-8-cyano-7-{3,8-diazabicyclo[3.2.1]octan-3-yl}-5-fluoro-3,4-dihydro-2H-1-benzopyran-3-yl]-7-ethyl-7H-pyrrolo[2,3-c]pyridazine-3-carboxamide]
pIC50: 5.70 to 6.70

Cc1cnc2c(N)c(C(=O)N[C@H]3CCc4cc(N5CC6CNCC(C5)O6)ccc4C3)sc2n1 [Example 448, N-((2S)-6-(9-oxa-3,7-diazabicyclo[3.3.1]nonan-3-yl)-1,2,3,4-tetrahydronaphthalen-2-yl)-7-amino-3-methylthieno[2,3-b]pyrazine-6-carboxamide]
pIC50: 5.70 to 6.70

Cc1ccc2c(N)c(C(=O)N[C@H]3COc4cc(N5CCC(F)(F)CC5)ccc4C3)sc2n1 [Example 5-1, (R)-3-amino-N-(7-(4,4-difluoropiperidin-1-yl)chroman-3-yl)-6-methylthieno[2,3-b]pyridine-2-carboxamide]
pIC50: 6.70 to 7.30

CCc1cccc2c(C(=O)N[C@H]3COc4cc(N5CCNCC5)ccc4C3)cnn12 [Example 474, 7-ethyl-N-[(3R)-7-(piperazin-1-yl)-3,4-dihydro-2H-1-benzopyran-3-yl]pyrazolo[1,5-a]pyridine-3-carboxamide]
pIC50: 5.70 to 6.70

COC[C@H]1CN(c2ccc3c(n2)OC[C@H](NC(=O)c2sc4nc(C)cc(C)c4c2N)C3)C[C@H]1N [Example 349, 3-amino-N-[(3R)-7-[(3S,4S)-3-amino-4-(methoxymethyl)pyrrolidin-1-yl]-2H,3H,4H-pyrano[2,3-b]pyridin-3-yl]-4,6-dimethylthieno[2,3-b]pyridine-2-carboxamide]
pIC50: 5.70 to 6.70

Cc1ccc2c(N)c(C(=O)N[C@H]3CCc4nc(N5C[C@H](N)[C@H](C(F)F)C5)ccc4C3)sc2n1 [Example 345, 3-amino-N-[(6S)-2-[(3R,4R)-3-amino-4-(difluoromethyl)pyrrolidin-1-yl]-5,6,7,8-tetrahydroquinolin-6-yl]-6-methylthieno[2,3-b]pyridine-2-carboxamide]
pIC50: 5.70 to 6.70

Cc1ccc2c(N)c(C(=O)N[C@H]3CCc4nc(N5C[C@H](N)[C@H](OC(C)(F)F)C5)ccc4C3)sc2n1 [Example 357, 3-amino-N-[(6S)-2-[(3S,4R)-3-amino-4-(1,1-difluoroethoxy)pyrrolidin-1-yl]-5,6,7,8-tetrahydroquinolin-6-yl]-6-methylthieno[2,3-b]pyridine-2-carboxamide]
pIC50: 5.70 to 6.70

O=C(N[C@H]1COc2cc(N3CC4CCC(C3)N4)ccc2C1)c1cnc2c(c1)[C@@H]1C[C@@H]1CN2 [Example 3-15, (1aS,7bR)-N-((3R)-7-(3,8-diazabicyclo[3.2.l]octan-3-yl)chroman-3-yl)-1a,2,3,7b-tetrahydro-1H-cyclopropa[c][1,8]naphthyridine-6-carboxamide]
pIC50: 6.70 to 7.30

Cc1cnc2c(N)c(C(=O)N[C@H]3CCc4cc(N5CCCNCC5)ccc4C3)sc2n1 [Example 455, (S)-N-(6-(1,4-diazepan-1-yl)-1,2,3,4-tetrahydronaphthalen-2-yl)-7-amino-3-methylthieno[2,3-b]pyrazine-6-carboxamide]
pIC50: 5.70 to 6.70

Cc1ccc2c(N)c(C(=O)N[C@H]3COc4cc(N5CC[C@]6(CCCNC6)C5)ccc4C3)sc2n1 [Example 3-13, N-((R)-7-((S)-2,7-diazaspiro[4.5]decan-2-yl)chroman-3-yl)-3-amino-6-methylthieno[2,3-b]pyridine-2-carboxamide]
pIC50: 5.70 to 6.70

CN[C@H]1CN(c2ccc3c(c2)OC[C@H](NC(=O)c2sc4nc(C)ccc4c2N)C3)C[C@@H]1O [Example 350, 3-amino-N-[(3R)-7-[(3S,4S)-3-hydroxy-4-(methylamino)pyrrolidin-1-yl]-3,4-dihydro-2H-1-benzopyran-3-yl]-6-methylthieno[2,3-b]pyridine-2-carboxamide]
pIC50: 5.70 to 6.70

CO[C@H]1CN(c2cc3c(c(F)c2F)C[C@@H](NC(=O)c2sc4nc(C)ccc4c2N)CO3)C[C@@H]1N [Example 416, 3-amino-N-[(3R)-7-[(3S,4S)-3-amino-4-methoxpyrrolidin-1-yl]-5,6-difluoro-3,4-dihydro-2H-1-benzopyran-3-yl]-6-methylthieno[2,3-b]pyridine-2-carboxamide]
pIC50: 5.70 to 6.70

Cc1ccc2c(N)c(C(=O)N[C@H]3COc4cc(N5CC(O)(C(F)(F)F)C5)ccc4C3)sc2n1 [Example 5-3, (R)-3-amino-N-(7-(3-hydroxy-3-(trifluoromethyl)azetidin-1-yl)chroman-3-yl)-6-methylthieno[2,3-b]pyridine-2-carboxamide]
pIC50: 5.70 to 6.70

Cc1ccc2c(N)c(C(=O)N[C@H]3CCc4nc(N5C[C@@H](N)[C@@H](OC(C)(F)F)C5)ccc4C3)sc2n1 [Example 358, 3-amino-N-[(6S)-2-[(3R,4S)-3-amino-4-(1,1-difluoroethoxy)pyrrolidin-1-yl]-5,6,7,8-tetrahydroquinolin-6-yl]-6-methylthieno[2,3-b]pyridine-2-carboxamide]
pIC50: < 5.70

O=C(N[C@H]1CCc2c(c(F)cc(N3CC4CCC(C3)N4)c2C(F)F)C1)c1cnc2c(c1)[C@H]1C[C@H]1CN2 (single isomer, unassigned) [Example 360]
pIC50: 5.70 to 6.70

Cc1ccc2c(N)c(C(=O)N[C@H]3COc4cc(N5C[C@H](N)[C@@H](F)C5)ccc4C3)sc2n1 [Example 3-7, 3-amino-N-((R)-7-((3S,4S)-3-amino-4-fluoropyrrolidin-1-yl)chroman-3-yl)-6-methylthieno[2,3-b]pyridine-2-carboxamide]
pIC50: 5.70 to 6.70

COc1ccn2ncc(C(=O)N[C@H]3COc4cc(N5CCNCC5)ccc4C3)c2c1 [Example 461, (R)-5-methoxy-N-(7-(piperazin-1-yl)chroman-3-yl)pyrazolo[1,5-a]pyridine-3-carboxamide]
pIC50: < 5.70

Cc1cc(C)n2ncc(C(=O)N[C@H]3COc4cc(N5CCNCC5)ccc4C3)c2n1 [Example 463, (R)-5,7-dimethyl-N-(7-(piperazin-1-yl)chroman-3-yl)pyrazolo[1,5-a]pyrimidine-3-carboxamide]
pIC50: < 5.70

CC(=O)N1CCCc2cc(C(=O)N[C@H]3COc4cc(N5CCNCC5)ccc4C3)ccc21 [Example 459, (R)-1-acetyl-N-(7-(piperazin-1-yl)chroman-3-yl)-1,2,3,4-tetrahydroquinoline-6-carboxamide]
pIC50: < 5.70
